Structures are written as SMILES.

Data set [1] is described as follows: Bidirectional permeability assay (Caco-2 cells). It counts as in vitro ADME. Conditions: human, pH 7.4, Caco-2 monolayers, absorptive direction (A2B), FaSSIF donor buffer. How it is done: Caco-2 cells (Evotec) were seeded at a density of 70,000 cells/well in Millicell® 24-well cell culture insert plates and maintained in an incubator (37° C., 5% CO2, 95% RH) for 21 days with media change on alternate days.
Stock solutions (10 mM) of the test compounds, atenolol (low permeability marker), propranolol (high permeability marker) and digoxin (substrate for P-gp transport pathway) were prepared in dimethylsulfoxide (DMSO). An intermediate stock solution (1 mM) was prepared by diluting 10 μL of 10 mM master stock solution with 90 μL of neat DMSO. A working stock solution (10 μM) was prepared by diluting 50 μL of 1 mM with 4950 μL of FaSSIF buffer. Post addition of compounds to the FaSSIF, samples were subjected to sonication for 2 hours, and centrifuged at 4000 RPM for 30 minutes at 37° C. The 4 mL of resultant supernatant was directly used in the assay. The final DMSO concentration in the transport experiments was 1%.
On the day of assay, Caco-2 monolayers were washed twice with transport buffer (HBSS, pH 7.4) and pre-incubated for 30 min (37° C., 5% CO2, 95% RH) in an incubator. The electrical resistance of the monolayers was measured with a Millicell®—ERS system. Monolayers with trans-epithelial electrical resistance (TEER) values greater than 350 ohm·cm^2 were selected for the assay.
The assay was conducted in absorptive direction (A2B) and secretory (B2A) directions. Transport experiments were initiated by addition of transport assay buffer (FaSSIF buffer prepared in HBSS) consisting of compounds to the donor compartment (apical chamber A-B; basolateral chamber B-A) in duplicate (n=2) wells. Drug free HBSS buffer (pH 7.4) containing 1% bovine serum albumin (BSA) was introduced to the receiver (A-B-basolateral; B-A-Apical) compartments. The volumes of apical and basolateral compartments were 0.4 and 0.8 mL, respectively. After adding dosing solution, plates were incubated in an incubator for 120 minutes at 37° C. After 120 minutes, donor and receiver samples were collected and matrix matched (1:1, 30 μL study sample+30 μL blank buffer) with the opposite buffer. Dosing samples matrix matched (1:1, 30 μL study sample+30 μL blank buffer) with the opposite buffer. Samples were processed by adding acetonitrile containing internal standard (60 μL study sample+200 μL acetonitrile containing internal standard—Tolbutamide, 500 ng/mL). Samples were vortexed and centrifuged at 4000 rpm for 10 minutes. The obtained supernatant (100 μL) was diluted with 100 μL of water and transferred to fresh 96 well plates. The concentration of compounds in the samples was analyzed by liquid chromatography tandem mass spectrometry (LC-MS/MS) method using discovery grade bio-analytical method, as applicable.
The mean apparent permeability (Papp, ×10^−6 cm/sec) of the test compounds, atenolol, propranolol and digoxin were calculated as follows:
[formula] where dq/dt=rate of transport (rate of transport of compound in the receiver compartment), C0=initial concentration in the donor compartment, A=surface area of the effective filter membrane.

The next data set deals with T1, human LBAT (Homo sapiens, UniProt Q14973).
T1 construct: expressed in transfected cells; Geneticin-selected LBAT-overexpressing cells
T1 sequence (Q14973 1-349): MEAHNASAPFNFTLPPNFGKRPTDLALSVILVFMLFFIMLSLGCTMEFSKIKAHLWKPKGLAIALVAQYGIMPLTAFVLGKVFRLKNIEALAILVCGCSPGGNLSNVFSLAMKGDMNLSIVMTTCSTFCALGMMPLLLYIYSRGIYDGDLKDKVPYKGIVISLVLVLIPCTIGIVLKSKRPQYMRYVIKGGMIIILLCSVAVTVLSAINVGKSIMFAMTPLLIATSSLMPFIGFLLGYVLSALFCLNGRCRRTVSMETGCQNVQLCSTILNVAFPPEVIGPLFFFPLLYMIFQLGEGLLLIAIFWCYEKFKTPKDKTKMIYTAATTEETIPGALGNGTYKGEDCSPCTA
The experiment in a line: LBAT (h/m) assay, human LBAT-overexpressing cells, 3H-taurocholic acid uptake. It counts as cell-based. Conditions: 0.3 μM 3H-taurocholic acid + 7.5 μM cold taurocholic acid, 20 minutes, read-out: hLBAT IC50. How it is done: 20,000 cells (Human or Mouse LBAT-overexpressing cells) were seeded in 96-wells plate (Corning CLS3809) in 100 μL MEM-alpha medium (Gibco 12571-063) supplemented with 10% FBS (Gibco 10438026) containing Geneticin (Gibco 10131-027) (1 mg/mL) and incubated at 37° C. in 5% CO2 for 24 hours. After incubation, media was decanted from the wells and cells were washed two times with 300 μL of basal MEM-alpha medium (FBS-free). After decanting basal MEM-alpha medium each time, plates were tapped against paper towel to ensure maximum removal of residual media.
For human LBAT, incubation mix was prepared by adding test inhibitor dilutions (3-fold serial dilution in DMSO (Sigma D2650), 10 points) in MEM-alpha (without FBS) containing 0.3 μM 3H-taurocholic acid (ARC ART-1368) and 7.5 μM cold taurocholic acid (Sigma T4009) (maintaining 0.2% final DMSO concentration). For mouse LBAT, incubation mix was prepared by adding test inhibitor dilutions (3-fold serial dilution in DMSO, 10 points) in MEM-alpha (without FBS) containing 0.3 μM 3H-taurocholic acid and 25 μM cold taurocholic acid maintaining 0.2% final DMSO concentration).
50 μL of incubation mix containing test inhibitors was then added to the wells (in duplicate) and the plates were incubated for 20 minutes in a CO2 incubator at 37° C. After incubation, the reaction was stopped by keeping the plates on ice water mix for 2-3 minutes and then the incubation mix was aspirated completely from the wells. The wells were washed two times with 250 μL of chilled unlabelled 1 mM taurocholic acid dissolved in HEPES (Gibco 15630080)-buffered (10 mM) HBSS (Gibco 14175079) (pH 7.4). The plates were tapped against a paper towel after every wash to ensure maximum removal of blocking buffer.
100 μL of MicroScint-20 (PerkinElmer 6013621) was added to the wells and kept overnight at room temperature before reading the plates in TopCount NXT™ Microplate Scintillation and Luminescence Counter from PerkinElmer under 3H Test protocol (set at 120 seconds reading time per well, with normal plate orientation).
All test compounds were provided in powder form at room temperature. 10 mM DMSO stocks of the test compounds were prepared, aliquoted and stored at −20° C. From the 10 mM DMSO stock of the compounds, a 3-fold serial dilution in DMSO was prepared to get a total of 10 dilutions of the test compounds. 0.5 μL of this dilution in DMSO was added to 250 μL of FBS-free basal media containing 3H-taurocholic acid and cold taurocholic acid to prepare the incubation mixture.

Take `CCCCC1(CCCC)CN(c2ccccc2)c2cc(SC)c(OCC(O)C(=O)O)cc2S(=O)(=O)N1` (racemic) [Example 5, 3-((3,3-dibutyl-7-(methylthio)-1,1-dioxido-5-phenyl-2,3,4,5-tetrahydro-1,2,5-benzothiadiazepin-8-yl)oxy)-2-hydroxypropanoic acid]: the Papp A→B at 120 min, 10 µM in data set [1] is 1 ×10⁻⁶ cm/s. Besides, the IC50 on human LBAT worked out at 1880 nM.
On the same counts, the results for `CCCCC1(CC)CN(c2ccccc2)c2cc(N(C)C)c(OCCC(=O)O)cc2S(=O)(=O)N1` (racemic) [Example 11, 3-((3-Butyl-7-(dimethylamino)-3-ethyl-1,1-dioxido-5-phenyl-2,3,4,5-tetrahydro-1,2,5-benzothiadiazepin-8-yl)oxy)propanoic acid] are 13.1 ×10⁻⁶ cm/s and 1170 nM.
`CCCCC1(CC)CN(c2ccccc2)c2cc(SC)c(OCCC(=O)O)cc2S(=O)(=O)N1` (single isomer, unassigned) [Example 4, 3-((3-butyl-3-ethyl-7-(methylthio)-1,1-dioxido-5-phenyl-2,3,4,5-tetrahydro-1,2,5-benzothiadiazepin-8-yl)oxy)propanoic acid] came in with a Papp A→B at 120 min, 10 µM in data set [1] of 7.6 ×10⁻⁶ cm/s. Also, on human LBAT, the IC50 was determined as 3650 nM.
For the compound `CCCCC1(CCCC)CN(c2ccccc2)c2cc(SC)c(OCC(O)C(=O)O)cc2S(=O)(=O)N1` (single isomer, unassigned) [Example 7, 3-((3,3-dibutyl-7-(methylthio)-1,1-dioxido-5-phenyl-2,3,4,5-tetrahydro-1,2,5-benzothiadiazepin-8-yl)oxy)-2-hydroxypropanoic acid], the Papp A→B at 120 min, 10 µM in data set [1] was found to be 0.4 ×10⁻⁶ cm/s. The IC50 at human LBAT was 2220 nM.
`CCCCC1(CC)CN(c2ccccc2)c2cc(N(C)C)c(OCCC(=O)O)cc2S(=O)(=O)N1` (single isomer, unassigned) [Example 12, 3-((3-butyl-7-(dimethylamino)-3-ethyl-1,1-dioxido-5-phenyl-2,3,4,5-tetrahydro-1,2,5-benzothiadiazepin-8-yl)oxy)propanoic acid] had a Papp A→B at 120 min, 10 µM in data set [1] of 14.2 ×10⁻⁶ cm/s. The IC50 on human LBAT amounted to 2220 nM.
As for `CCCCC1(CCCC)CN(c2ccccc2)c2cc(SC)c(OCCC(=O)O)cc2S(=O)(=O)N1` [Example 1, 3-((3,3-Dibutyl-7-(methylthio)-1,1-dioxido-5-phenyl-2,3,4,5-tetrahydro-1,2,5-benzothiadiazepin-8-yl)oxy)propanoic acid], the Papp A→B at 120 min, 10 µM in data set [1] worked out at 9.2 ×10⁻⁶ cm/s. Also, on human LBAT, the IC50 was 2910 nM.
On the same counts, the results for `CCCCC1(CCCC)CN(c2ccccc2)c2cc(SC)c(OC(C)CC(=O)O)cc2S(=O)(=O)N1` (stereo not drawn) [Example 8, 3-((3,3-Dibutyl-7-(methylthio)-1,1-dioxido-5-phenyl-2,3,4,5-tetrahydro-1,2,5-benzothiadiazepin-8-yl)oxy)butanoic acid] are 9.5 ×10⁻⁶ cm/s and 2630 nM.
With `CCCCC1(CCCC)CN(c2ccccc2)c2cc(Cl)c(OCCC(=O)O)cc2S(=O)(=O)N1` [Example 9, 3-((3,3-dibutyl-7-chloro-1,1-dioxido-5-phenyl-2,3,4,5-tetrahydro-1,2,5-benzothiadiazepin-8-yl)oxy)propanoic acid], the Papp A→B at 120 min, 10 µM in data set [1] amounted to 10 ×10⁻⁶ cm/s. Also, the IC50 at human LBAT came out at 1620 nM.
In turn, `CCCCC1(CCCC)CN(c2ccc(O)cc2)c2cc(SC)c(OCCC(=O)O)cc2S(=O)(=O)N1` [Example 10, 3-((3,3-dibutyl-5-(4-hydroxyphenyl)-7-(methylthio)-1,1-dioxido-2,3,4,5-tetrahydro-1,2,5-benzothiadiazepin-8-yl)oxy)propanoic acid] displayed a Papp A→B at 120 min, 10 µM in data set [1] of 2.1 ×10⁻⁶ cm/s. Further, at human LBAT, the IC50 stood at 7200 nM.
